Where two headings read alike, the source gives them in different places.
Assays:
[1] = PAMPA-BBB (parallel artificial membrane permeability assay, porcine polar brain lipid extract); format: in vitro ADME; settings: for logPe PAMPA-BBB (n = 9): donor pH 7.4, acceptor pH 7.4, 37 °C, 4 h, n.d. = not detected in the acceptor phase; for Papp at 4 h, 100 µM: pig, PAMPA, pH 7.4, read-out: logPe PAMPA-BBB (n = 9) (converted)
Method: (§1) For the PAMPA-BBB test, 5 μL of porcine polar brain lipid extract (PBLE) solution (16.0 mg PBLE + 8.0 mg cholesterol dissolved in 600.0 μL n-dodecane) was applied for each well of the 96-well polycarbonate-based filter donor plates (top plate) (Multiscreen™-IP, MAIPN4510, pore size 0.45 μm; Merck). For the PAMPA-GI assay, the wells of the top plate were coated with 5 μL of the mixture of 16.0 mg phosphatidylcholine + 8.0 mg cholesterol dissolved in 600.0 μL n-dodecane. A measure of 150.0 μL of aliquots of the filtrated donor solutions were placed on the membrane. The 96-well PTFE acceptor plates (bottom plates) (Multiscreen Acceptor Plate, MSSACCEPTOR; Merck), were filled with 300.0 μL buffer solution (0.01 M PBS buffer, pH 7.4). The donor plate was placed upon the acceptor plate, and both plates were incubated together at 37 °C for 4 h in a Heidolph Titramax 1000 Vibrating platform shaker (Heidolph, Schwabach, Germany).
(§2) After incubation, sandwich plates were separated and the concentrations of each compound in the starting donor solution and in the acceptor and donor wells were determined in triplicate by UHPLC-DAD method described above. […] The effective permeability and the membrane retention in the PAMPA-BBB and the PAMPA GI experiments were calculated by Equations (4)–(7), respectively:(4) Pe=−2.303/A(t−τSS)·VA·VD/VA+VD·lg1−VA+VD/1−MR·VD×CAt/CD0 (5) Pe=−2.303/A(t−τSS)·1/1+ra·lg−ra+1+ra/1−MR×CDt/CD0 where Pe is the effective permeability coefficient (cm/s), A is the filter area (0.24 cm^2), VD and VA are the volumes in the donor (0.15 cm^3) and acceptor phases (0.30 cm^3), t is the incubation time (s), τSS is the time (s) to reach steady-state (240 s), CD(t) is the concentration (mol/cm^3) of the compound in the donor phase at time t, CD(0) is the concentration (mol/cm^3) of the compound in the donor phase at time 0, and MR is the estimated membrane retention factor (the estimated mole fraction of solute lost to the membrane), ra is the sink asymmetry ratio (gradient-pH-induced), defined as:(6) ra=VD/VA×Pe(A→D)/Pe(D→A) (7) MR=1−CDt/CD0−VA/VDCAt/CD0
(§3) All experiments were performed in three triplicates on three consecutive days (n = 9), caffeine standard was used as positive, while rutin as negative control. ClogP values were calculated by ChemAxon Marvin 22.3.

[2] = tested on: Vero E6 non-tumorous kidney cells; experiment: selectivity study: cytostatic activity on non-tumorous Vero E6 cells, Alamar Blue assay; format: cell-based, African green monkey (C. sabaeus)
Method: (§4) To determine the selectivity, we assessed the compounds on the Vero E6 non-tumorous kidney cells from African green monkeys (C. sabaeus), and their cytostatic activity was determined (Table 3).
(§5) For the selectivity study, a non-human primate cell culture was used. Vero E6 cells were established from kidney tissue sampled from an African green monkey (C. sabaeus) They originated from a primary culture initiated in March 1962 by Yoshihiro Yasumura at Chiba University in Japan. Vero E6 cells were obtained from the European Collection of Authenticated Cell Cultures (ECACC 85020206) and maintained in DMEM high-glucose (4.5 g/L) medium (Lonza, Basel, Switzerland) containing 10% FBS (Gibco, Thermo Fisher Scientific) and supplemented with 2 mM of L-glutamine (Lonza), 1 mM sodium pyruvate (Merck), and CellCultureGuard (PanReacApplichem, ITW Reagents, Darmstadt, Germany) at 37 °C in a humidified atmosphere of 5% CO2.
(§6) All cell cultures were maintained at 37 °C in a humidified atmosphere with 5% CO2. The cells were grown to confluence and then divided into 96-well tissue culture plates with the initial cell number of 5.0 × 10^3 cells/well. […] Control cells were treated with serum-free medium or DMSO (c = 1.0 v/v %) at the same conditions. After this incubation period, cells were washed twice with serum-free medium, and following that, they were cultured for another 72 h in a 10% serum-containing medium at 37 °C. After that, cell viability was determined using the Alamar Blue assay. Alamar Blue is a non-toxic, resazurin-based dye that living cells reduce to a fluorescent molecule, resorufin [99]. Resazurin sodium salt (Merck, Darmstadt, Germany) was dissolved in PBS at c = 0.15 mg/mL, pH 7.4). A measure of 22 uL of the dye was added to each well and incubated at 37 °C for 3 h until the pink color of the reduced dye appeared. Fluorescence intensity in each well was measured using a Synergy H4 multimode microplate reader (BioTek, Winooski, VT); at λex = 530/30 and λem = 610/10 nm.
(§7) The cytostasis values were expressed in the percentage of untreated control.

[3] = tested on: MDA-MB 231, A2058, HT-29 and Vero E6 cells; experiment: in vitro cytostasis, Alamar Blue assay, cell lines taken together; format: cell-based; settings: for effect on the tumor cell lines: tumor cell lines (MDA-MB 231, A2058, HT-29)
Method: (§8) For the evaluation of the in vitro antiproliferative activity of the compounds, the cell viability was determined by resazurin (Alamar Blue) assay on MDA-MB 231 breast carcinoma, A2058 melanoma, and HT-29 colon carcinoma cell culture. The control wells were treated only with serum-free medium.
as §4
(§9) The cytostatic effect of the compounds was studied on tumor cell cultures in vitro. MDA-MB-231 human breast adenocarcinoma cells were cultured in DMEM medium supplemented with 10% FBS, 2 mM L-glutamine, penicillin–streptomycin antibiotics mixture (50 IU/mL, and 50 μg/mL, respectively), 1 mM sodium pyruvate, and 1% non-essential amino acid mixture. A2058 human melanoma cells, and HT-29 colorectal carcinoma cells were cultured in RPMI medium supplemented with 10% FBS, 2 mM L-glutamine, and penicillin–streptomycin antibiotics mixture (50 IU/mL and 50 μg/mL, respectively). Cell lines were generous gifts from Dr. József Tóvári (Department of Experimental Pharmacology, National Institute of Oncology, Budapest, Hungary).
as §5, §6, §7

[4] = PAMPA-GI (parallel artificial membrane permeability assay, phosphatidylcholine membrane); format: in vitro ADME; settings: for logPe PAMPA-GI (n = 9): donor pH 6.8, acceptor pH 7.4, 37 °C, 4 h, n.d. = not detected in the acceptor phase; for Papp at 4 h, 100 µM: PAMPA, read-out: logPe PAMPA-GI (n = 9) (converted)
Method: as §1, §2, §3

[5] = tested on: MDA-MB-231 human breast adenocarcinoma cells; experiment: in vitro cytostatic (antiproliferative) activity, Alamar Blue (resazurin) assay, MDA-MB 231; format: cell-based
Method: as §8, §9, §6, §7

[6] = tested on: A2058 human melanoma cells; experiment: in vitro cytostatic (antiproliferative) activity, Alamar Blue (resazurin) assay, A2058; format: cell-based
Method: as §8, §9, §6, §7

[7] = tested on: HT-29 colorectal carcinoma cells; experiment: in vitro cytostatic (antiproliferative) activity, Alamar Blue (resazurin) assay, HT-29; format: cell-based; settings: Homo sapiens
Method: as §8, §9, §6, §7

[8] = chemical stability in the aqueous solutions/buffer of the PAMPA experiments (UHPLC-DAD); settings: PAMPA, 100 µM
Method: Quantities of the isolated compounds in the PAMPA experiments (14, 58, 74, 86, 92, 106, 141, and 143) were determined by UHPLC-DAD. The Juglans extracts were analyzed by an ACQUITY UPLC H-Class PLUS System equipped with a quaternary solvent delivery pump (QSM), an auto-sampler manager (FTN), a column compartment (CM), and a photodiode array (PDA) detector (Waters Corporation). An Acquity BEH C18 column (100 × 2.1 mm i.d., 1.7 µm; Waters Corporation) maintained at 30 °C was used as stationary phase. Eluent A was 0.3% acetic acid in water and eluent B was acetonitrile, the following gradient elution was applied (flow rate: 0.3 mL/min): 5.0–100.0% B (0.0–11.0 min), 100.0–5.0% B (11.0–11.5 min), 5% B (11.5–15.0 min). The injection volume was 5 µL and chromatograms were recorded at 200–400 nm. The chromatograms acquired at the UV absorption maxima of each compound were used for data evaluation.
Stock solutions (10 mM in methanol) were diluted with the defined buffer (pH 7.4 for the PAMPA-BBB and pH 6.8 for the PAMPA-GI assays) to obtain the donor solutions (composition: 594.0 μL buffer + 6.0 μL stock solution). The buffers were prepared as follows: pH = 6.8: 20.2 g Na2HPO4 ∙ 7H2O and 3.4 g NaH2PO4 ∙ H2O dissolved in distilled water to achieve the final volume of 1000.0 mL, pH adjustment with 0.5 M NaOH or 0.5 M HCl; pH = 7.4: one PBS tablet (Phosphate Buffered Saline, pH 7.4; Sigma Aldrich) dissolved in 200.0 mL distilled water. Donor solutions were filtered through Phenex-RC 15 mm, 0.2 μm syringe filters (Gen-Lab Ltd., Budapest, Hungary).

[9] = Chlorocebus sabaeus, Vero C1008, in vitro cytostatic activity, Alamar Blue assay, Vero E6 non-tumorous kidney cells, read-out: IC50 (µM) VERO E6 Non Tumorous
[10] = in vitro cytostatic activity, Alamar Blue (resazurin) assay, MDA-MB 231 breast carcinoma cell culture, read-out: IC50 (µM) MDA-MB 231
[11] = in vitro cytostatic activity, Alamar Blue (resazurin) assay, A2058 melanoma cell culture, read-out: IC50 (µM) A2058
[12] = in vitro cytostatic activity, Alamar Blue (resazurin) assay, HT-29 colon carcinoma cell culture, read-out: IC50 (µM) HT-29
[13] = Chlorocebus sabaeus, Vero C1008, read-out: IC50 (µM) VERO E6 Non Tumorous
[14] = MDA-MB-231, read-out: IC50 (µM) MDA-MB 231
[15] = A2058, read-out: IC50 (µM) A2058
[16] = HT-29, read-out: IC50 (µM) HT-29

Row | IC50 [5, 10] [µM] | IC50 [6, 11] [µM] | IC50 [7, 12] [µM] | Compound | logPe PAMPA-BBB (n = 9) [1] | effect on the tumor cell lines [3] | logPe PAMPA-GI (n = 9) [4] | IC50 [2, 9] [µM] | further results
1 | > 100 | > 100 | > 100 | O=C(OCC1OC(OC2CCC(=O)c3ccc(O)c(O)c32)C(O)C(O)C1O)c1cc(O)c(O)c(O)c1 [Compound 92, 1,2,3,4-tetrahydro-7,8-dihydroxy-4-oxonaphthalen-1-yl-6-O-[(3,4,5-trihydroxyphenyl)carbonyl]-β-D-glucopyranoside] | not detected in the acceptor phase | no effect | not detected in the acceptor phase | 61.1 ± 5.3 | 
2 | > 100 | > 100 | > 100 | CC1OC(Oc2c(-c3cc(O)c(O)c(O)c3)oc3cc(O)cc(O)c3c2=O)C(O)C(O)C1O (stereo not shown) [myricetin-3-O-rhamnoside (86)] |  |  |  | 3.7 ± 0.7 | 
3 | > 100 | > 100 | > 100 | O=c1c(OC2OCC(O)C(O)C2O)c(-c2ccc(O)c(O)c2)oc2cc(O)cc(O)c12 (stereo not shown) [quercetin-3-O-xyloside (74)] |  |  |  | > 100 | 
4 | > 100 | > 100 | > 100 | O=c1oc2c(O)c(O)cc3c(=O)oc4c(O)c(O)cc1c4c23 [Compound 143, ellagic acid] | less than −6.0 |  | less than −6.0 | > 100 | Papp at 4 h, 100 µM [1]: 0.224 ×10⁻⁶ cm/s; IC50 (cytostatic activity) on the Vero E6 cells ([2]; Vero E6 non-tumorous kidney cells, selectivity): not cytostatic; Papp at 4 h, 100 µM [4]: 0.741 ×10⁻⁶ cm/s; inhibition at 100 µM ([7]; read-out: % inhibition at 100 µM, 100 µM, HT-29 cell culture): 33%; IC50 ([7]; HT-29 colon carcinoma, treatment overnight, then 72 h culture, Alamar Blue, read-out: IC50 on HT-29 cell culture): 12.1 µM
5 | > 100 | 102.5 ± 0.7 | > 100 | CCOC(=O)c1cc(O)c(O)c(O)c1 [Compound 58, ethyl gallate] |  |  |  | 82.1 ± 5.7 | Papp at 4 h, 100 µM [1]: 1.7 ×10⁻⁶ cm/s; Papp at 4 h, 100 µM [4]: 3.72 ×10⁻⁶ cm/s; additional minor compounds appeared in the aqueous solutions prepared for the PAMPA experiments [8]: < 5%; inhibition at 100 µM ([6]; read-out: % inhibition at 100 µM, 100 µM, A2058 cell culture): 56.4%

Further lines, the compound ahead of its results:

Row | Compound | IC50 [5, 10] [µM] | IC50 [6, 11] [µM] | IC50 [7, 12] [µM] | logPe PAMPA-BBB (n = 9) [1] | effect on the tumor cell lines [3] | logPe PAMPA-GI (n = 9) [4] | IC50 [2, 9] [µM] | further results
6 | CC1OC(Oc2c(-c3ccc(O)c(O)c3)oc3cc(O)cc(O)c3c2=O)C(O)C(O)C1O (stereo not shown) [Compound 106, quercetin-3-O-rhamnoside (quercitrin)] |  |  |  | not detected in the acceptor phase | no effect | not detected in the acceptor phase |  | IC50 ([2]; Chlorocebus sabaeus, Vero C1008, read-out: IC50 (cytostatic activity) on the Vero E6 cells): 15.9 µM
7 | COc1cccc2c1C(=O)c1c(O)c3c(c(O)c1C2=O)C[C@@](O)(C(C)=O)C[C@@H]3O[C@H]1C[C@H](N)[C@H](O)[C@H](C)O1 [Daunomycin, daunomycin, reference compound] |  |  |  |  |  |  |  | IC50 [2, 13]: 1.1 ± 0.05 µM; IC50 ([3]; read-out: IC50 value (50% inhibition) in all cell lines): 0.2 to 1.1 µM; IC50 [5, 14]: 0.7 ± 0.1 µM; IC50 [6, 15]: 0.9 ± 0.1 µM; IC50 [7, 16]: 0.2 ± 0.05 µM
8 | myricetin-3-O-rhamnoside (myricitrin) [Compound 86] |  |  |  |  | no effect |  |  | IC50 ([2]; Vero E6 non-tumorous kidney cells, selectivity, read-out: IC50 (cytostatic activity) on the Vero E6 cells): 3.7 µM
9 | O=C(O)c1cc(O)c(O)c(O)c1 [Compound 14, gallic acid] | 49.8 ± 3.5 | 57.2 ± 4.7 | 71.2 ± 7.9 | not detected in the acceptor phase |  | not detected in the acceptor phase | 49.9 ± 2.8 | 
10 | CC1OC(Oc2c(-c3ccc(O)c(O)c3)oc3cc(O)cc(O)c3c2=O)C(O)C(O)C1O (stereo not shown) [quercetin-3-O-rhamnoside (106)] |  |  |  |  |  |  |  | IC50 [2, 13]: 15.9 ± 0.7 µM; IC50 [5, 14]: > 100 µM; IC50 [6, 15]: > 100 µM; IC50 [7, 16]: > 100 µM

Reference: PMC11241769, “Comprehensive Characterization of Phytochemical Composition, Membrane Permeability, and Antiproliferative Activity of Juglans nigra Polyphenols” (International Journal of Molecular Sciences, 2024)
